According to patent US12570666B2, “Furoindazole derivatives” (Bayer Aktiengesellschaft, priority 2019, dated 2026):

Molecular target: T1, human GPR84 receptor (Homo sapiens, UniProt Q9NQS5)
T1 construct: frozen aliquots prepared by acCELLerate; host or cells: CHO-K1
Test: cAMP HTRF assay for identification of cellular GPR84 antagonists
Type: cell-based
Details: CHO-K1 cells stably expressing human GPR84; Forskolin + agonist 6-OAU (EC80); average or median values
Outline: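 Forskolin-stimulated CHO-K1 cells stably expressing human GPR84, agonist-suppressed cAMP measured by HTRF (665/620 ratio) after lysis. Compounds at 11 concentrations, 20 μM to 0.07 nM, duplicate; normalized to DMSO and no-agonist controls; IC50 by 4-parameter fit.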

T1 sequence (Q9NQS5 whole entry): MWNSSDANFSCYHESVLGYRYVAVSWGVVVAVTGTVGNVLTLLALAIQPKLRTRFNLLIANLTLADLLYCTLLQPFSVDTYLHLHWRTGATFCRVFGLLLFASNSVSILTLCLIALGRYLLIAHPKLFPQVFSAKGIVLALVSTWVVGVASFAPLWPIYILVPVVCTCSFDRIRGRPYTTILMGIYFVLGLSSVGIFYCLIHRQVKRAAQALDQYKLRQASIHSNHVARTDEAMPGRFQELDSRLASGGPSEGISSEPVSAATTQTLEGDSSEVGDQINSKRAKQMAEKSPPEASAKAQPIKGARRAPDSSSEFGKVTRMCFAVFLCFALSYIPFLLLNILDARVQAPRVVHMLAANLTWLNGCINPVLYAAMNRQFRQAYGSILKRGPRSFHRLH

SMILES | IC50 [nM]
O=C(NCc1ncco1)c1oc2c(c1C(F)(F)F)-c1nn(Cc3ccccn3)cc1C1(CCC1)C2 [Example 275, N-(1,3-Oxazol-2-ylmethyl)-2′-(pyridin-2-ylmethyl)-8′-(trifluormethyl)-2′,5′-dihydrospiro[cyclobutan-1,4′-furo[2,3-g]indazol]-7′-carboxamide] | 141
Cn1ccc(CNC(=O)c2oc3c(c2C(F)(F)F)-c2nn(Cc4ccccn4)cc2C2(CCC2)C3)n1 [Example 276, N-[(1-Methyl-1H-pyrazol-3-yl)methyl]-2′-(pyridin-2-ylmethyl)-8′-(trifluormethyl)-2′,5′-dihydrospiro[cyclobutan-1,4′-furo[2,3-g]indazol]-7′-carboxamide] | 156
Cc1ccc(Cn2cc3c(n2)-c2c(oc(C(=O)NC[C@@H]4CCCO4)c2C(F)(F)F)CC32CCC2)nc1 [Example 277, 2′-[(5-Methylpyridin-2-yl)methyl]-N-[(2S)-tetrahydrofuran-2-ylmethyl]-8′-(trifluormethyl)-2′,5′-dihydrospiro[cyclobutan-1,4′-furo[2,3-g]indazol]-7′-carboxamide] | 8
Cc1ccc(Cn2cc3c(n2)-c2c(oc(C(=O)NC[C@@H]4COCCO4)c2C(F)(F)F)CC32CCC2)nc1 [Example 278, N-[(2R)-1,4-Dioxan-2-ylmethyl]-2′-[(5-methylpyridin-2-yl)methyl]-8′-(trifluormethyl)-2′,5′-dihydrospiro[cyclobutan-1,4′-furo[2,3-g]indazol]-7′-carboxamide] | 10
Cc1ccc(Cn2cc3c(n2)-c2c(oc(C(=O)NCc4ccn(C)n4)c2C(F)(F)F)CC32CCC2)nc1 [Example 279, N-[(1-Methyl-1H-pyrazol-3-yl)methyl]-2′-[(5-methylpyridin-2-yl)methyl]-8′-(trifluormethyl)-2′,5′-dihydrospiro[cyclobutan-1,4′-furo[2,3-g]indazol]-7′-carboxamide] | 53
O=C(NC[C@@H]1CCCO1)c1oc2c(c1C(F)(F)F)-c1nn(Cc3ccncc3)cc1C1(CCC1)C2 [Example 280, 2′-(Pyridin-4-ylmethyl)-N-[(2S)-tetrahydrofuran-2-ylmethyl]-8′-(trifluormethyl)-2′,5′-dihydrospiro[cyclobutan-1,4′-furo[2,3-g]indazol]-7′-carboxamide] | 16
O=C(NC[C@@H]1COCCO1)c1oc2c(c1C(F)(F)F)-c1nn(Cc3ccncc3)cc1C1(CCC1)C2 [Example 281, N-[(2R)-1,4-Dioxan-2-ylmethyl]-2′-(pyridin-4-ylmethyl)-8′-(trifluormethyl)-2′,5′-dihydrospiro[cyclobutan-1,4′-furo[2,3-g]indazol]-7′-carboxamide] | 21
O=C(NC[C@@H]1COCCO1)c1oc2c(c1C(F)(F)F)-c1nn(CC3CC3)cc1CC2 [Example 282, 2-(cyclopropylmethyl)-N-{[(2R)-1,4-dioxan-2-yl]methyl}-8-(trifluoromethyl)-4,5-dihydro-2H-furo[2,3-g]indazole-7-carboxamide] | 10
COCC(=O)N1CCC(Cn2cc3c(n2)-c2c(oc(C(=O)NC[C@@H]4COCCO4)c2C(F)(F)F)CC3)CC1 [Example 283, N-{[(2R)-1,4-dioxan-2-yl]methyl}-2-{[1-(methoxyacetyl)piperidin-4-yl]methyl}-8-(trifluoromethyl)-4,5-dihydro-2H-furo[2,3-g]indazole-7-carboxamide] | 139
COCC(=O)N1CCC(Cn2cc3c(n2)-c2c(oc(C(=O)NC[C@@H]4CCCO4)c2C(F)(F)F)CC3)CC1 [Example 284, 2-{[1-(methoxyacetyl)piperidin-4-yl]methyl}-N-{[(2S)-oxolan-2-yl]methyl}-8-(trifluoromethyl)-4,5-dihydro-2H-furo[2,3-g]indazole-7-carboxamide] | 86
O=C(NC[C@@H]1COCCO1)c1oc2c(c1C(F)(F)F)-c1nn(CC3CCN(C(=O)C4CC4)CC3)cc1CC2 [Example 285, 2-{[1-(cyclopropanecarbonyl)piperidin-4-yl]methyl}-N-{[(2R)-1,4-dioxan-2-yl]methyl}-8-(trifluoromethyl)-4,5-dihydro-2H-furo[2,3-g]indazole-7-carboxamide] | 21
O=C(NC[C@@H]1CCCO1)c1oc2c(c1C(F)(F)F)-c1nn(CC3CCN(C(=O)C4CC4)CC3)cc1CC2 [Example 286, 2-{[1-(cyclopropanecarbonyl)piperidin-4-yl]methyl}-N-{[(2S)-oxolan-2-yl]methyl}-8-(trifluoromethyl)-4,5-dihydro-2H-furo[2,3-g]indazole-7-carboxamide] | 11
O=C(NC[C@@H]1COCCO1)c1oc2c(c1C(F)(F)F)-c1nn(CC3CCN(C(=O)c4ccccc4)CC3)cc1CC2 [Example 287, 2-[(1-benzoylpiperidin-4-yl)methyl]-N-{[(2R)-1,4-dioxan-2-yl]methyl}-8-(trifluoromethyl)-4,5-dihydro-2H-furo[2,3-g]indazole-7-carboxamide] | 10
O=C(NC[C@@H]1CCCO1)c1oc2c(c1C(F)(F)F)-c1nn(CC3CCN(C(=O)c4ccccc4)CC3)cc1CC2 [Example 288, 2-[(1-benzoylpiperidin-4-yl)methyl]-N-{[(2S)-oxolan-2-yl]methyl}-8-(trifluoromethyl)-4,5-dihydro-2H-furo[2,3-g]indazole-7-carboxamide] | 101
Cc1c(C(=O)NC[C@@H]2CCCO2)oc2c1-c1nn(C(C)(C)c3cccnc3)cc1CC2 [Example 289, 8-methyl-N-{[(2S)-oxolan-2-yl]methyl}-2-[2-(pyridin-3-yl)propan-2-yl]-4,5-dihydro-2H-furo[2,3-g]indazole-7-carboxamide] | 801
O=C(NC[C@H]1COCCO1)c1oc2c(c1C(F)(F)F)-c1nn(C[C@H]3COCCO3)cc1CC2 [Example 300, N,2-bis{[(2S)-1,4-dioxan-2-yl]methyl}-8-(trifluoromethyl)-4,5-dihydro-2H-furo[2,3-g]indazole-7-carboxamide] | 322
O=C(NC[C@H]1COCCO1)c1oc2c(c1C(F)(F)F)-c1nn(C[C@@H]3COCCO3)cc1CC2 [Example 301, 2-{[(2R)-1,4-dioxan-2-yl]methyl}-N-{[(2S)-1,4-dioxan-2-yl]methyl}-8-(trifluoromethyl)-4,5-dihydro-2H-furo[2,3-g]indazole-7-carboxamide] | 723
CC(=O)N1CCC(Cn2cc3c(n2)-c2c(oc(C(=O)NC[C@@H]4CCCO4)c2C(F)(F)F)CC3)CC1 [Example 305, 2-[(1-acetylpiperidin-4-yl)methyl]-N-{[(2S)-oxolan-2-yl]methyl}-8-(trifluoromethyl)-4,5-dihydro-2H-furo[2,3-g]indazole-7-carboxamide] | 16
CC(=O)N1CCC(Cn2cc3c(n2)-c2c(oc(C(=O)NC[C@@H]4COCCO4)c2C(F)(F)F)CC3)CC1 [Example 306] | 27
O=C(NC[C@@H]1CCCO1)c1oc2c(c1C(F)(F)F)-c1nn(CC3CCN(CC4CC4)CC3)cc1CC2 [Example 307, 2-{[1-(cyclopropylmethyl)piperidin-4-yl]methyl}-N-{[(2S)-oxolan-2-yl]methyl}-8-(trifluoromethyl)-4,5-dihydro-2H-furo[2,3-g]indazole-7-carboxamide] | 62
CN1CCC(Cn2cc3c(n2)-c2c(oc(C(=O)NC[C@@H]4CCCO4)c2C(F)(F)F)CC3)CC1 [Example 308, 2-[(1-methylpiperidin-4-yl)methyl]-N-{[(2S)-oxolan-2-yl]methyl}-8-(trifluoromethyl)-4,5-dihydro-2H-furo[2,3-g]indazole-7-carboxamide] | 151
CN1CCC(Cn2cc3c(n2)-c2c(oc(C(=O)NC[C@@H]4COCCO4)c2C(F)(F)F)CC3)CC1 [Example 309, N-{[(2R)-1,4-dioxan-2-yl]methyl}-2-[(1-methylpiperidin-4-yl)methyl]-8-(trifluoromethyl)-4,5-dihydro-2H-furo[2,3-g]indazole-7-carboxamide] | 154
O=C(NC[C@@H]1COCCO1)c1oc2c(c1C(F)(F)F)-c1nn(CC3CCN(CC4CC4)CC3)cc1CC2 [Example 310, 2-{[1-(cyclopropylmethyl)piperidin-4-yl]methyl}-N-{[(2R)-1,4-dioxan-2-yl]methyl}-8-(trifluoromethyl)-4,5-dihydro-2H-furo[2,3-g]indazole-7-carboxamide] | 197
CCN1CCC(Cn2cc3c(n2)-c2c(oc(C(=O)NC[C@@H]4CCCO4)c2C(F)(F)F)CC3)CC1 [Example 311, 2-[(1-ethylpiperidin-4-yl)methyl]-N-{[(2S)-oxolan-2-yl]methyl}-8-(trifluoromethyl)-4,5-dihydro-2H-furo[2,3-g]indazole-7-carboxamide] | 202
CCN1CCC(Cn2cc3c(n2)-c2c(oc(C(=O)NC[C@@H]4COCCO4)c2C(F)(F)F)CC3)CC1 [Example 312, N-{[(2R)-1,4-dioxan-2-yl]methyl}-2-[(1-ethylpiperidin-4-yl)methyl]-8-(trifluoromethyl)-4,5-dihydro-2H-furo[2,3-g]indazole-7-carboxamide] | 760
Cc1ccc(Cn2cc3c(n2)-c2c(oc(C(=O)N[C@@H]4CCOC4)c2C)CC3)nc1 [Example 318, 8-methyl-2-[(5-methylpyridin-2-yl)methyl]-N-[(3R)-oxolan-3-yl]-4,5-dihydro-2H-furo[2,3-g]indazole-7-carboxamide] | 8310
Cc1c(C(=O)NC[C@@H]2CCCO2)oc2c1-c1nn(Cc3ccc(C#N)cn3)cc1CC2 [Example 319, 2-[(5-cyanopyridin-2-yl)methyl]-8-methyl-N-{[(2S)-oxolan-2-yl]methyl}-4,5-dihydro-2H-furo[2,3-g]indazole-7-carboxamide] | 1120
O=C(NC[C@@H]1COCCO1)c1oc2c(c1C(F)(F)F)-c1nn(C[C@H]3COCCO3)cc1CC2 [Example 320, N-{[(2R)-1,4-dioxan-2-yl]methyl}-2-{[(2S)-1,4-dioxan-2-yl]methyl}-8-(trifluoromethyl)-4,5-dihydro-2H-furo[2,3-g]indazole-7-carboxamide] | 12
